In patent publication US20210215674A1, “COMPOSITIONS AND METHODS FOR SCREENING COMPOUNDS FOR CARDIAC SIDE EFFECTS” (Arizona Board of Regents on Behalf of the University of …, priority 2018, published 2021):

Test system: hiPSC-CM / fibroblast graft (bioengineered tissue)
Assay: ECG recording of bioengineered tissue on multi-electrode array with pharmacological perturbations
Format: cell-based, human
Conditions: for change of heart rate of the construct: continuous ECG recording, FIG. 8; for change of QT interval / change of R-R interval (heart rate-equivalent): single bioengineered tissue on multi-electrode array vs baseline, FIG. 10
Experimental: Methods of graft engineering: Human dermal fibroblasts were cultured into a vicryl (polygalctin 910) knitted mesh until the mesh was fully confluent with fibroblasts. Human induced pluripotent stem cell derived cardiomyocytes (hiPSC-CMs) were seeded onto the fibroblasts grafts using centrifugal force (1300 rpms for 5 min). All cell cultures were maintained at […] and 5% CO2 with media changed every 24-48 hrs. Fibroblasts were maintained with 10% FBS in DMEM, hiPSC-CMs were maintained with RPMI+B27. Grafts were either used fresh or after cryopreservation. Fresh grafts were assayed 48 hrs after hiPSC-CM engraftment. Cryopreserved grafts were assayed 2 days post reconstitution. Axion System Methods: […] diameter circular grafts were transferred to the Axion culture well, hiPSC-CM side down and three small 5 mm×1 mm weights were placed on the surface to enhance contact with the electrodes. Cultures were maintained at 37° C. and 5% CO2. Data were obtained at baseline, and then with pharmacological perturbations. NeuroNexus Methods: 1.6 cm diameter circular grafts were placed hiPSC-CM side down on the recording array. Cultures were maintained at 37° C. but no control was available for CO2. […] To enhance contact, the volume of medium in the culture well was reduced from 1.5 ml to 0.25-0.5 ml. Data were obtained at baseline, and then with pharmacological perturbations.

SMILES | change of heart rate of the construct | change of QT interval | change of R-R interval (heart rate-equivalent)
CC(C)NCC(O)c1ccc(O)c(O)c1 (stereo not drawn) [Isoproterenol] | increase | decrease | decrease
CC(C)(C)NC[C@H](O)COc1nsnc1N1CCOCC1 [Timolol] | decrease | increase | increase
